Experiment: Impurity profile (sum of all impurities, HPLC) at start and after storage
Assay type: physicochemical
Experimental: All HPLC measurements were performed with an […].
Impurity profile: Sum of all the impurities: HPLC, in %: […]

## CC(C)c1c(C(=O)Nc2ccccc2)c(-c2ccccc2)c(-c2ccc(F)cc2)n1CC[C@@H](O)C[C@@H](O)CC(=O)[O-].CC(C)c1c(C(=O)Nc2ccccc2)c(-c2ccccc2)c(-c2ccc(F)cc2)n1CC[C@@H](O)C[C@@H](O)CC(=O)[O-].[Ca+2] (relative stereo) [amorphous atorvastatin calcium, calcium salt of [R-(R*,R*)]-2-(4-fluorophenyl)-β,δ-dihydroxy-5-(1-methylethyl)-3-phenylphenylamino)carbonyl]-1H-pyrrol-1-heptanoic acid]
15 days (70° C./75% relative humidity)
  Sum of all the impurities, HPLC: 1.92%
Start
  Sum of all the impurities, HPLC: 1.07%

Reference: patent publication US20050106243A1, “Process for the preparation of free-flowing, pulverized atorvastatin adsorbates” (priority 2003, published 2005)
